Here are results for 2 compounds from US8138191B2, “Inhibitor compounds and cancer treatment methods” (Critical Outcome Technologies Inc., priority 2007, dated 2012).

In general, IC50 refers to the midpoint of a concentration-inhibition curve. Broadly, the inhibition is the change of the read-out against control, counted positive when it falls.

SMILES strings stand for the structures. Like-named read-outs stand apart in the source and are kept apart here.

Data set [1] concerns normal human peripheral blood mononuclear cells (PBMCs). Put plainly: Flow cytometric analysis of cell death (Annexin V/PI), PBMCs. In kind it is cell-based. The conditions noted are these: PBMC, PBMCs from healthy male and female subjects. Here is the method: All cell lines were grown and exposed to various concentrations of COTI-2 or vehicle only control and the percentage of dead or dying cells were determined 24 and 48 h post-exposure by Annexin V and propidium iodide.
Blood samples from 2 healthy human volunteers (person) were obtained in 5 ml Vacutainers® containing 100 USP sodium heparin (Becton Dickinson, Franklin Lake, N.J.) and rocked gently to mix, then kept at room temperature. Blood was diluted 1:1 with phosphate buffered saline (PBS) and layered over an equal volume of room temperature Histopaque-1083® (Sigma Diagnostics, St. Louis, Mo.) in a 15 ml conical bottom polyethylene (PET) centrifuge tube (Corning Corporation, Corning, N.Y.). This was centrifuged at 400×g for 30 minutes at 20° C. […]
Cells were plated in 25-cm^2 flasks and treated with COTI-2 (0-100 μM) added from a stock DMSO/DMEM solution such that DMSO concentrations never exceeded 0.5%. […] Resuspended cells (100 μl) were incubated in the dark with 10 μl propidium iodide (PI, 50 ng per ml; Sigma, St. Louis, Mo.) plus Annexin V-FITC (25 ng per ml, green fluorescence; BD Biosciences, Mississauga, Ontario). […] Samples were analyzed for combined Annexin V/PI staining (to assess dead plus apoptotic cells) using a Beckman Coulter EPCS XL-MCL flow cytometer (Beckman Coulter, Hileah, Fla.) and the data were analyzed with CellQuest software.
(In general: A flow cytometer gives signals particle by particle.)

A short description of data set [2]: Metabolic Stability (liver microsomes, monkey, Cynomolgus). Type of data set: in vitro ADME. The settings on record: 1.0E−06 M, 60 min. Here is the method:
Metabolic stability was determined in human (mixed gender and pool of 50) monkey (male Cynomolgus, pool of 6 or more), dog male, beagle, pool of 4 or more) and rat (male Sprague-Dawley, pool of 100 or more) liver microsomes. […] Four reference substrates (1 μM) were tested simultaneously with COTI-2. […] Peak areas corresponding to COTI-2 were recorded by HPLC-MS/MS. Metabolic stability, expressed as percent of COTI-2 remaining, was calculated by comparing the peak area of COTI-2 at 60 min to time zero.

In the next data set the target is CYP2D6 (Homo sapiens, UniProt P10635). Put plainly: in vitro. In kind it is in vitro ADME. The settings on record: both sexes. Here is the method:
The final incubation volume was 200 μl. […] Peak areas corresponding to metabolite were recorded.

In another data set the target is CYP3A (Homo sapiens, UniProt P08684). Put plainly: in vitro. The conditions noted are these: both.
Chain of CYP3A (P08684 2-503): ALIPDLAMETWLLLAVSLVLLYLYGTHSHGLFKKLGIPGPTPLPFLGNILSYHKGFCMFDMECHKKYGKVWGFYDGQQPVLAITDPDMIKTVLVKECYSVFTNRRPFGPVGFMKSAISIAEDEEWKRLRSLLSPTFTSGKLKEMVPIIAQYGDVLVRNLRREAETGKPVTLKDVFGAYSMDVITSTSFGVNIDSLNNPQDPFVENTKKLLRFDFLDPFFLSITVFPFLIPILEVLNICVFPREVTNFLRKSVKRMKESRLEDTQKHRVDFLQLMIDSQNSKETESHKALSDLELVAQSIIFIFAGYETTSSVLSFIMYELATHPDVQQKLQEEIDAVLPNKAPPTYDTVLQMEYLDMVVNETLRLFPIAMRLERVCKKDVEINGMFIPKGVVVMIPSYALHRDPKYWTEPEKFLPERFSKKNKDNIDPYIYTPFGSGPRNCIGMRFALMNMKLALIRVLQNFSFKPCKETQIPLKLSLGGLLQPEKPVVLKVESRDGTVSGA
The test system of another data set is DMS114 cells. In words: siRNA target knock-down with COTI-219, cell viability by trypan blue, DMS114. The settings on record: DMS114, 500 nM, 48 h. In kind it is cell-based, human. Here is the method: (§1) In brief, cells DMS114 and SHP77 cells were transfected with gene specific siRNA in the presence or absence of COTI-219 and cell viability determined after 24 to 48 h post-incubation using the trypan blue exclusion method.
(§2) Cell cultures were maintained under regular tissue culture conditions and passaged 1-2 times a week as recommended by ATCC. With the exception of the siRNA for Bim (Signal Silence Bim siRNA kit #6460 from Cell Signaling), all other siRNA reagents for gene knock-down experiments was obtained from Ambion (Silencer Negative Control #1 siRNA #AM4611, CDK2 Silencer Select #s204, HRAS Silencer Select #s807, Protein kinase C alpha Silencer Validated #301, MAPK3/Erk Silencer Pre-designed #214749, EGFR Silencer Select #s563, and ERBB2 Silencer Select #s611). […] The transfection method required optimization such that a knock-down of the target gene greater than ˜75% was achieved and confirmed by western blot analyses. […] Following an optimal knock-down level at >75%, 2×10^5 cells were incubated with 500 nM COTI-219 and number of viable cells was measured at 48 h.
(§3) Cell viability assays were performed 24 to 48 h following incubation with COTI-219 by the trypan blue exclusion method using a Beckman-Coulter Vi-CELL XR 2.03 automated cell counter. Routine laboratory methods were employed for the production of cellular lysates, protein quantitation, SDS-PAGE and western blotting. […]

The next data set relates to SHP77 cells. In words: siRNA target knock-down with COTI-219, cell viability by trypan blue, SHP77. In kind it is cell-based, human. The settings on record: SHP77, 500 nM, 48 h. Here is the method:
as §1, §2, §3

Chain of CYP2D6 (P10635 whole entry): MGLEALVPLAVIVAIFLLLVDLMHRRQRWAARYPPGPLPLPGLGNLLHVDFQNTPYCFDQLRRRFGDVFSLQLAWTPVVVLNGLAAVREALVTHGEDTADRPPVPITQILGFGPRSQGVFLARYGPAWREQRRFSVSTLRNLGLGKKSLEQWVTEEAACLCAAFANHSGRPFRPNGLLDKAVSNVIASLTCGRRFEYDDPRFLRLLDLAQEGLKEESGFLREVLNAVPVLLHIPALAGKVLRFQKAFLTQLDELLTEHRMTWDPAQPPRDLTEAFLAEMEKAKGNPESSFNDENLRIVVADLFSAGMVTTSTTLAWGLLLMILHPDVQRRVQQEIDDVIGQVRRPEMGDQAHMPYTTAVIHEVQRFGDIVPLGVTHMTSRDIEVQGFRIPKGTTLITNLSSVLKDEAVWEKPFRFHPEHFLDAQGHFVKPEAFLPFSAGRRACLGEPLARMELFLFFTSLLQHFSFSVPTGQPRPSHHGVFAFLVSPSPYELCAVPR

For the compound `S=C(N/N=C1/CCCc2cccnc21)N1CCN(c2ccccn2)CC1` [COTI-2], the IC50 in data set [1] is greater than 100 µM. Besides, the “Mean Parent Remaining” value in data set [2] came to 2%. Also, the inhibition at 15 min, 10 µM at CYP2D6 (human liver microsomes, pH 7.4, probe dextromethorphan (10 µM), CYP2D6, HLM, dextromethorphan substrate, 1.0E−05 M, read-out: % Inhibition of Control Values) is 2%; on CYP2D6 (liver microsomes, pH 7.4, probe dextromethorphan, CYP2D6, 10 μM, read-out: percent inhibition), less than 50%; against CYP3A (human liver microsomes, pH 7.4, probe testosterone (10 µM)), -4%; against CYP3A (liver microsomes, pH 7.4, probe testosterone), less than 50%.

For the compound `CN1CCN(C(=S)NN=C2c3ncccc3-c3cccnc32)CC1` [COTI-219], the “target knock-downs suppressing the action of COTI-219 on apoptosis/cell growth” value with DMS114 cells was “only the Ras knock-down was able to suppress the action of COTI-219”. The “target knock-downs suppressing the apoptotic/cell growth inhibitory effect of COTI-219” value with SHP77 cells is “not only Ras but Erbb2, Erk1, and PKC-α all suppressed”.
